Test systems include MDA-MB-231; OVCAR-5; SK-MEL-28; PC-3; MCF7; HOP-62; RPMI-8226; A549; MOLT-4; UACC-62; IGROV-1; MDA-N; MDA-MB-435; UACC-257; M14; SF-268; HCC 2998; OVCAR-3; K562; A498.
Assay in all cases: NCI anticancer screen, dose series, 48 h

11 molecules from ChEMBL document CHEMBL1201862, “PubChem BioAssay data set” (2004) can be followed below.

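Dose response: 5 concentrations. Exposure: 48 h. Format: 96-well plates. Endpoint: linear interpolation; highest concentration if not reached. Here, GI50 denotes the concentration required for 50% inhibition of growth.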 Activity calls are given as the source filed them. No stated cut-off is given here; in the data, active = GI50 up to about 1.1 µM and inactive = higher.

Take `c1ccc2c(c1)cc1c3[nH]c4ccccc4c3ccn21`: the GI50 is > 10 µM (inactive) in the experiment with MDA-MB-231; > 10 µM (inactive) in the experiment with OVCAR-5; > 10 µM (inactive) with SK-MEL-28; > 10 µM (inactive) in the experiment on PC-3; 1.19 µM (inactive) with MCF7; > 10 µM (inactive) in the experiment on HOP-62. Besides, the GI50 is 4.59 µM (inactive) with RPMI-8226; > 10 µM (inactive) in the experiment with A549; > 10 µM (inactive) in the experiment on MOLT-4; > 10 µM (inactive) with UACC-62; > 10 µM (inactive) in the experiment with IGROV-1; > 10 µM (inactive) in the experiment with MDA-N. The GI50 in the experiment on MDA-MB-435, with UACC-257, with M14, in the experiment with SF-268, with HCC 2998 and in the experiment with OVCAR-3 was > 10 µM (inactive) each time. For the same molecule, the GI50 with K562 was > 10 µM (inactive).
Consider `CC[C@H]1C=CCC[C@@]2(C[C@@H]3CC[C@H]4[C@H](C(=O)OCCCCCCCCCCCCCCCC(=O)N(CCCN)C[C@@H](O)CCN)[C@]5(CCC[C@@H](C)O5)NC(=[N+]34)N2)O1`, for which the GI50 in the experiment with OVCAR-5 was 0.429 µM (active); in the experiment with SK-MEL-28 it was 1.28 µM (inactive); in the experiment with PC-3, 0.7 µM (active); in the experiment with MCF7 it was 0.421 µM (active); in the experiment with HOP-62, 1.26 µM (inactive); in the experiment with RPMI-8226, 0.177 µM (active). Besides, the GI50 was 0.48 µM (active) in the experiment with A549; 0.27 µM (active) in the experiment with MOLT-4; 0.202 µM (active) in the experiment with UACC-62; 0.615 µM (active) in the experiment with IGROV-1; 0.407 µM (active) in the experiment on MDA-N; 0.338 µM (active) with MDA-MB-435. Also, the GI50 was 0.604 µM (active) in the experiment with UACC-257; 0.231 µM (active) with M14; 1.45 µM (inactive) in the experiment with A498; 1.11 µM (active) in the experiment with SF-268; 0.575 µM (active) with HCC 2998; 1.41 µM (inactive) with OVCAR-3. In addition, the GI50 with K562 was 0.256 µM (active).
As to `COCOc1ccc(C(=O)C(C)c2ccc(OCOC)cc2OCOC)c(O)c1` (configuration not stated), the GI50 with OVCAR-5 is > 100 µM (inactive); in the experiment on SK-MEL-28, > 100 µM (inactive); with PC-3, 48.9 µM (inactive); with MCF7, 68.2 µM (inactive); with HOP-62 it was > 100 µM (inactive); in the experiment on RPMI-8226, 71.1 µM (inactive). For the same molecule, the GI50 is 97.3 µM (inactive) with A549; 42.6 µM (inactive) in the experiment with MOLT-4; > 100 µM (inactive) in the experiment with UACC-62; > 100 µM (inactive) in the experiment with IGROV-1; 52.8 µM (inactive) in the experiment with MDA-N; 71.3 µM (inactive) in the experiment on MDA-MB-435. Further, the GI50 in the experiment with UACC-257 is 56.4 µM (inactive); in the experiment with M14 it was > 100 µM (inactive); in the experiment with A498, > 100 µM (inactive); in the experiment on SF-268 it was > 100 µM (inactive); in the experiment with HCC 2998, > 100 µM (inactive).
Consider `CCC1(COC(NC(=O)c2ccccc2)(C(F)(F)F)C(F)(F)F)COC1`, for which the GI50 was > 100 µM (inactive) with OVCAR-5; > 100 µM (inactive) with SK-MEL-28; > 100 µM (inactive) with PC-3; > 100 µM (inactive) in the experiment on RPMI-8226; > 100 µM (inactive) with A549; 52.4 µM (inactive) with MOLT-4. For the same molecule, the GI50 in the experiment on IGROV-1, with MDA-N, with MDA-MB-435, in the experiment on UACC-257, with M14 and with A498 was > 100 µM (inactive) in each case. Moreover, the GI50 with SF-268, in the experiment with HCC 2998 and in the experiment with K562 was > 100 µM (inactive) each time.
Regarding `CC(=O)c1cc2c(s1)C(=O)c1sccc1C2=O`, the GI50 in the experiment with MDA-MB-231 is 0.0346 µM (active); with OVCAR-5 it was 0.0664 µM (active); in the experiment on SK-MEL-28, 0.014 µM (active); in the experiment with PC-3, 0.0568 µM (active); in the experiment with MCF7 it was 0.0301 µM (active); in the experiment on HOP-62, 0.0434 µM (active). Further, the GI50 in the experiment on RPMI-8226 is 0.0392 µM (active); in the experiment on A549, 0.207 µM (active); in the experiment with MOLT-4, 0.0486 µM (active); with UACC-62 it was 0.0333 µM (active); with IGROV-1, 0.168 µM (active); with MDA-MB-435, < 0.01 µM (active). In addition, the GI50 in the experiment with UACC-257 is 0.0146 µM (active); in the experiment with M14, 0.0274 µM (active); in the experiment with A498, 1.26 µM (inactive); in the experiment on SF-268, 0.0267 µM (active); in the experiment with HCC 2998 it was 0.218 µM (active); in the experiment with OVCAR-3, < 0.014 µM (active). In the experiment with K562, the GI50 is 0.018 µM (active).
Regarding `COc1ccc(Nc2nn3c(=O)c4c(C)c(C)sc4nc3s2)cc1`, the GI50 with MDA-MB-231 is 78.7 µM (inactive); in the experiment on OVCAR-5, 52.4 µM (inactive); in the experiment with SK-MEL-28 it was 61.1 µM (inactive); in the experiment with PC-3 it was 36.1 µM (inactive); in the experiment on MCF7 it was 34.8 µM (inactive); in the experiment with HOP-62 it was 29.1 µM (inactive). Moreover, the GI50 with A549 is 18.6 µM (inactive); in the experiment with MOLT-4, 43.2 µM (inactive); in the experiment with UACC-62, 71 µM (inactive); in the experiment with IGROV-1, 42.2 µM (inactive); in the experiment on MDA-N, 45.6 µM (inactive); with MDA-MB-435 it was 34.7 µM (inactive). Further, the GI50 was 29.9 µM (inactive) in the experiment on UACC-257; 61.1 µM (inactive) in the experiment on M14; 5.98 µM (inactive) in the experiment on SF-268; 29.1 µM (inactive) in the experiment on OVCAR-3; > 100 µM (inactive) in the experiment on K562.
`CN(C)CCNC(=O)c1ccc2nc3c(nc2c1)C(=O)c1ccccc1-3`: the GI50 is > 100 µM (inactive) in the experiment with OVCAR-5; > 100 µM (inactive) with SK-MEL-28; 45 µM (inactive) in the experiment on PC-3; 27.9 µM (inactive) in the experiment on MCF7; 29 µM (inactive) with HOP-62; 26.1 µM (inactive) in the experiment on RPMI-8226. Moreover, the GI50 with A549 was > 100 µM (inactive); with MOLT-4 it was 12.9 µM (inactive); in the experiment with UACC-62, 46.5 µM (inactive); in the experiment with IGROV-1, 38.9 µM (inactive); in the experiment on MDA-N, 18.2 µM (inactive); in the experiment on MDA-MB-435, 26 µM (inactive). Moreover, the GI50 with UACC-257 is 76.6 µM (inactive); with M14, > 100 µM (inactive); in the experiment with A498, > 100 µM (inactive); in the experiment on SF-268 it was 33.5 µM (inactive); in the experiment on HCC 2998, 86.9 µM (inactive); in the experiment with OVCAR-3 it was 55 µM (inactive).
Take `O=C(CCc1ccccc1CO)NCCc1ccccc1`: the GI50 in the experiment on MDA-MB-231, with OVCAR-5, in the experiment on SK-MEL-28, in the experiment with PC-3, in the experiment with MCF7 and in the experiment with HOP-62 was > 100 µM (inactive) in each case. Besides, the GI50 in the experiment on RPMI-8226, in the experiment on A549, with MOLT-4, in the experiment with UACC-62, with IGROV-1 and in the experiment with MDA-MB-435 was > 100 µM (inactive) throughout. Moreover, the GI50 in the experiment on UACC-257, in the experiment on M14, with A498, in the experiment with SF-268, in the experiment on HCC 2998 and in the experiment with OVCAR-3 was > 100 µM (inactive) each time. In addition, in the experiment with K562, the GI50 was > 100 µM (inactive).
Consider `O=C(CSCC(=O)N/N=C/c1ccc2c(c1)OCO2)N/N=C/c1ccc2c(c1)OCO2`, for which the GI50 in the experiment with MDA-MB-231 was > 100 µM (inactive); in the experiment with OVCAR-5, > 100 µM (inactive); in the experiment with SK-MEL-28, > 100 µM (inactive); in the experiment on PC-3, 40.6 µM (inactive); in the experiment with MCF7 it was 63 µM (inactive); in the experiment on HOP-62, > 100 µM (inactive). For the same molecule, the GI50 in the experiment on RPMI-8226 was 49.3 µM (inactive); with A549, 91.4 µM (inactive); in the experiment with MOLT-4, 21.5 µM (inactive); in the experiment with UACC-62, 52.6 µM (inactive); with IGROV-1 it was > 100 µM (inactive); in the experiment on MDA-MB-435, 38.3 µM (inactive). The GI50 is 30.3 µM (inactive) in the experiment with UACC-257; 58.9 µM (inactive) with M14; > 100 µM (inactive) in the experiment on A498; > 100 µM (inactive) in the experiment with SF-268; > 100 µM (inactive) with HCC 2998; > 100 µM (inactive) with OVCAR-3. In the experiment on K562, the GI50 is 38.3 µM (inactive).
Regarding `N=C(N)C1CN(CCc2c[nH]cn2)C(=O)NC1=O` (configuration not stated), the GI50 in the experiment on OVCAR-5, with SK-MEL-28, with PC-3, in the experiment on MCF7, in the experiment with HOP-62 and in the experiment on RPMI-8226 was > 100 µM (inactive) each time. Moreover, the GI50 with A549, with MOLT-4, in the experiment on UACC-62, in the experiment with IGROV-1, with MDA-N and with MDA-MB-435 was > 100 µM (inactive) in each case. The GI50 in the experiment with UACC-257, in the experiment with M14, with A498, with SF-268, with HCC 2998 and in the experiment with OVCAR-3 was > 100 µM (inactive) throughout.
As to `Cc1cc(S(=O)(=O)O)ccc1/N=N/c1c(O)ccc2ccccc12`, the GI50 in the experiment on MDA-MB-231, with OVCAR-5, in the experiment with SK-MEL-28, in the experiment on PC-3, with HOP-62 and in the experiment on RPMI-8226 was > 100 µM (inactive) each time. Moreover, the GI50 in the experiment on A549, in the experiment on MOLT-4, in the experiment with UACC-62, with IGROV-1, in the experiment on MDA-N and in the experiment with MDA-MB-435 was > 100 µM (inactive) each time. Besides, the GI50 in the experiment on UACC-257, with M14, with SF-268, in the experiment with OVCAR-3 and in the experiment with K562 was > 100 µM (inactive) in each case.
